PubChem BioAssay AID1963863 (Molecular Pharmacology Branch, DTP, NCI, 2024)
pIC50: −log10 of the molar value.

Tested on: 931267-113-T-J1-PDC KRAS spheroid with HUVEC/MSC, viability
Assay: Anticancer human tumor 931267-113-T-J1-PDC patient-derived colon adenocarcinoma cell line growth inhibition [KRAS2]
Conditions: for pIC50: curve of first compound; for viability, T/C: stronger effect = lower value
Summary of the method: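 KRAS-mutant tumor cells were grown as spheroids with HUVEC endothelial cells and human MSCs as stroma. Targeted agents were tested alone and with KRAS pathway inhibitors. Doses started at or near clinical Cmax, or 10 microM, descending half-log.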

[1] = second compound 0.1 µM, first compound 0.000316 µM
[2] = second compound 0.1 µM, first compound 0.001 µM
[3] = second compound 0.1 µM, first compound 0.00316 µM
[4] = second compound 0.1 µM, first compound 0.01 µM
[5] = second compound 0.1 µM, first compound 0.0316 µM
[6] = second compound 0.316 µM, first compound 0.000316 µM
[7] = second compound 0.316 µM, first compound 0.001 µM
[8] = second compound 0.316 µM, first compound 0.00316 µM
[9] = second compound 0.316 µM, first compound 0.01 µM
[10] = second compound 0.316 µM, first compound 0.0316 µM
[11] = second compound 1 µM, first compound 0.000316 µM
[12] = second compound 1 µM, first compound 0.001 µM
[13] = second compound 1 µM, first compound 0.00316 µM
[14] = second compound 1 µM, first compound 0.01 µM
[15] = second compound 1 µM, first compound 0.0316 µM
[16] = second compound 3.16 µM, first compound 0.000316 µM
[17] = second compound 3.16 µM, first compound 0.001 µM
[18] = second compound 3.16 µM, first compound 0.00316 µM
[19] = second compound 3.16 µM, first compound 0.01 µM
[20] = second compound 3.16 µM, first compound 0.0316 µM
[21] = second compound 10 µM, first compound 0.000316 µM
[22] = second compound 10 µM, first compound 0.001 µM
[23] = second compound 10 µM, first compound 0.00316 µM
[24] = second compound 10 µM, first compound 0.01 µM
[25] = second compound 10 µM, first compound 0.0316 µM
[26] = second compound 0.1 µM, first compound 0.1 µM
[27] = second compound 0.316 µM, first compound 0.1 µM
[28] = second compound 1 µM, first compound 0.1 µM
[29] = second compound 3.16 µM, first compound 0.1 µM
[30] = second compound 10 µM, first compound 0.1 µM
[31] = second compound 0.1 µM, first compound 0.316 µM
[32] = second compound 0.1 µM, first compound 1 µM
[33] = second compound 0.1 µM, first compound 3.16 µM
[34] = second compound 0.1 µM, first compound 10 µM
[35] = second compound 0.316 µM, first compound 0.316 µM
[36] = second compound 0.316 µM, first compound 1 µM
[37] = second compound 0.316 µM, first compound 3.16 µM
[38] = second compound 0.316 µM, first compound 10 µM
[39] = second compound 1 µM, first compound 0.316 µM
[40] = second compound 1 µM, first compound 1 µM
[41] = second compound 1 µM, first compound 3.16 µM
[42] = second compound 1 µM, first compound 10 µM
[43] = second compound 3.16 µM, first compound 0.316 µM
[44] = second compound 3.16 µM, first compound 1 µM
[45] = second compound 3.16 µM, first compound 3.16 µM
[46] = second compound 3.16 µM, first compound 10 µM
[47] = second compound 10 µM, first compound 0.316 µM
[48] = second compound 10 µM, first compound 1 µM
[49] = second compound 10 µM, first compound 3.16 µM
[50] = second compound 10 µM, first compound 10 µM
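Note: compound exposure lasted 7 days before the readout.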
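Throughout, for viability, T/C: 100% = DMSO vehicle control viability.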

CC(=O)Nc1cccc(-n2c(=O)n(C3CC3)c(=O)c3c(Nc4ccc(I)cc4F)n(C)c(=O)c(C)c32)c1 + CC1OCC2(CCN(c3cnc(Sc4ccnc(N)c4Cl)c(N)n3)CC2)C1N
pIC50 (second compound 0.1 µM): 8.09
pIC50 (second compound 0.316 µM): 8.03
pIC50 (second compound 1 µM): 8.47
pIC50 (second compound 3.16 µM): 9.02
pIC50 (second compound 10 µM): 9.56
viability, T/C (second compound 0.1 µM, first compound 0.0001 µM): 92%
viability, T/C [1]: 81.6%
viability, T/C [2]: 68.2%
viability, T/C [3]: 56.1%
viability, T/C [4]: 62.2%
viability, T/C [5]: 20.1%
viability, T/C (second compound 0.316 µM, first compound 0.0001 µM): 60.2%
viability, T/C [6]: 54.3%
viability, T/C [7]: 71.8%
viability, T/C [8]: 48.9%
viability, T/C [9]: 51.7%
viability, T/C [10]: 7.58%
viability, T/C (second compound 1 µM, first compound 0.0001 µM): 67.7%
viability, T/C [11]: 69.5%
viability, T/C [12]: 53.9%
viability, T/C [13]: 50.8%
viability, T/C [14]: 37.7%
viability, T/C [15]: 6.56%
viability, T/C (second compound 3.16 µM, first compound 0.0001 µM): 59.7%
viability, T/C [16]: 61.5%
viability, T/C [17]: 46.9%
viability, T/C [18]: 38.7%
viability, T/C [19]: 26.9%
viability, T/C [20]: 7.86%
viability, T/C (second compound 10 µM, first compound 0.0001 µM): 60.8%
viability, T/C [21]: 47.9%
viability, T/C [22]: 31.8%
viability, T/C [23]: 35%
viability, T/C [24]: 12.3%
viability, T/C [25]: 2.06%

CC(C)n1nc(-c2ccc3oc(N)nc3c2)c2c(N)ncnc21 + CC1OCC2(CCN(c3cnc(Sc4ccnc(N)c4Cl)c(N)n3)CC2)C1N
pIC50 (second compound 0.1 µM): 8.36
pIC50 (second compound 0.316 µM): 8.50
pIC50 (second compound 1 µM): 8.45
pIC50 (second compound 3.16 µM): 8.44
pIC50 (second compound 10 µM): 8.15
viability, T/C [1]: 90%
viability, T/C [2]: 81.6%
viability, T/C [3]: 49.5%
viability, T/C [4]: 42.8%
viability, T/C [5]: 27.6%
viability, T/C [26]: 26.1%
viability, T/C [6]: 85.2%
viability, T/C [7]: 76.3%
viability, T/C [8]: 44.7%
viability, T/C [9]: 34.9%
viability, T/C [10]: 19.9%
viability, T/C [27]: 16.7%
viability, T/C [11]: 79.7%
viability, T/C [12]: 66.9%
viability, T/C [13]: 51.3%
viability, T/C [14]: 36.8%
viability, T/C [15]: 25.7%
viability, T/C [28]: 18.7%
viability, T/C [16]: 68.4%
viability, T/C [17]: 64.1%
viability, T/C [18]: 46.1%
viability, T/C [19]: 43.9%
viability, T/C [20]: 27%
viability, T/C [29]: 15.6%
viability, T/C [21]: 66.5%
viability, T/C [22]: 77.7%
viability, T/C [23]: 62.2%
viability, T/C [24]: 45.3%
viability, T/C [25]: 19.9%
viability, T/C [30]: 22.5%

CC1(C)CCC(CN2CCN(c3ccc(C(=O)NS(=O)(=O)c4ccc(NCC5CCOCC5)c([N+](=O)[O-])c4)c(Oc4cnc5[nH]ccc5c4)c3)CC2)=C(c2ccc(Cl)cc2)C1 + CC1OCC2(CCN(c3cnc(Sc4ccnc(N)c4Cl)c(N)n3)CC2)C1N
pIC50 (second compound 0.1 µM): 5.77
pIC50 (second compound 0.316 µM): 5.79
pIC50 (second compound 1 µM): 5.76
pIC50 (second compound 3.16 µM): 5.78
pIC50 (second compound 10 µM): 5.78
viability, T/C [5]: 104%
viability, T/C [26]: 84.1%
viability, T/C [31]: 87.8%
viability, T/C [32]: 75.7%
viability, T/C [33]: 20.9%
viability, T/C [34]: 8.53%
viability, T/C [10]: 91%
viability, T/C [27]: 81.3%
viability, T/C [35]: 73.2%
viability, T/C [36]: 72.8%
viability, T/C [37]: 20.7%
viability, T/C [38]: 3.06%
viability, T/C [15]: 84.9%
viability, T/C [28]: 75.9%
viability, T/C [39]: 67.5%
viability, T/C [40]: 81.3%
viability, T/C [41]: 20.5%
viability, T/C [42]: 1.45%
viability, T/C [20]: 61.1%
viability, T/C [29]: 77.8%
viability, T/C [43]: 70.2%
viability, T/C [44]: 70.6%
viability, T/C [45]: 25%
viability, T/C [46]: 0.6%
viability, T/C [25]: 83.7%
viability, T/C [30]: 77%
viability, T/C [47]: 94.5%
viability, T/C [48]: 85.9%
viability, T/C [49]: 5.34%
viability, T/C [50]: 0.28%

COc1cc(Nc2ncc3c(n2)-c2ccc(Cl)cc2C(c2c(F)cccc2OC)=NC3)ccc1C(=O)O + CC1OCC2(CCN(c3cnc(Sc4ccnc(N)c4Cl)c(N)n3)CC2)C1N
pIC50 (second compound 0.1 µM): < 5.00
pIC50 (second compound 0.316 µM): 5.19
pIC50 (second compound 1 µM): 6.07
pIC50 (second compound 3.16 µM): 6.24
pIC50 (second compound 10 µM): 6.10
viability, T/C [5]: 69.3%
viability, T/C [26]: 75.1%
viability, T/C [31]: 58.4%
viability, T/C [32]: 58%
viability, T/C [33]: 51.7%
viability, T/C [34]: 54%
viability, T/C [10]: 67.4%
viability, T/C [27]: 68.7%
viability, T/C [35]: 57.1%
viability, T/C [36]: 61.3%
viability, T/C [37]: 49%
viability, T/C [38]: 49.5%
viability, T/C [15]: 62.4%
viability, T/C [28]: 52.4%
viability, T/C [39]: 54.4%
viability, T/C [40]: 51.5%
viability, T/C [41]: 41.3%
viability, T/C [42]: 31.6%
viability, T/C [20]: 53.4%
viability, T/C [29]: 64.6%
viability, T/C [43]: 56.8%
viability, T/C [44]: 42%
viability, T/C [45]: 33.3%
viability, T/C [46]: 21.6%
viability, T/C [25]: 70.2%
viability, T/C [30]: 65.4%
viability, T/C [47]: 51.1%
viability, T/C [48]: 46.8%
viability, T/C [49]: 43.3%
viability, T/C [50]: 15.8%

COc1cc2nccc(Oc3ccc(NC(=O)C4(C(=O)Nc5ccc(F)cc5)CC4)cc3)c2cc1OC + CC1OCC2(CCN(c3cnc(Sc4ccnc(N)c4Cl)c(N)n3)CC2)C1N
pIC50 (second compound 0.1 µM): < 5.00
pIC50 (second compound 0.316 µM): 5.55
pIC50 (second compound 1 µM): 5.51
pIC50 (second compound 3.16 µM): 5.34
pIC50 (second compound 10 µM): 5.53
viability, T/C [5]: 87%
viability, T/C [26]: 116%
viability, T/C [31]: 102%
viability, T/C [32]: 88.8%
viability, T/C [33]: 51.4%
viability, T/C [34]: 66.6%
viability, T/C [10]: 81.9%
viability, T/C [27]: 91.9%
viability, T/C [35]: 84.9%
viability, T/C [36]: 99.5%
viability, T/C [37]: 45.1%
viability, T/C [38]: 37.4%
viability, T/C [15]: 92.8%
viability, T/C [28]: 95.8%
viability, T/C [39]: 86.3%
viability, T/C [40]: 88.2%
viability, T/C [41]: 48.1%
viability, T/C [42]: 49.5%
viability, T/C [20]: 78.6%
viability, T/C [29]: 99%
viability, T/C [43]: 91.3%
viability, T/C [44]: 92.1%
viability, T/C [45]: 57.5%
viability, T/C [46]: 33.5%
viability, T/C [25]: 99.2%
viability, T/C [30]: 101%
viability, T/C [47]: 93.3%
viability, T/C [48]: 86.5%
viability, T/C [49]: 47.1%
viability, T/C [50]: 30.5%

Cn1ncnc1[C@H]1c2n[nH]c(=O)c3cc(F)cc(c23)N[C@@H]1c1ccc(F)cc1 + CC1OCC2(CCN(c3cnc(Sc4ccnc(N)c4Cl)c(N)n3)CC2)C1N
pIC50 (second compound 0.1 µM): < 7.00
pIC50 (second compound 0.316 µM): < 7.00
pIC50 (second compound 1 µM): < 7.00
pIC50 (second compound 3.16 µM): < 7.00
pIC50 (second compound 10 µM): < 7.00
viability, T/C [1]: 93.9%
viability, T/C [2]: 97.8%
viability, T/C [3]: 89.2%
viability, T/C [4]: 89.3%
viability, T/C [5]: 90.3%
viability, T/C [26]: 80.5%
viability, T/C [6]: 84%
viability, T/C [7]: 91.4%
viability, T/C [8]: 91.2%
viability, T/C [9]: 78.9%
viability, T/C [10]: 60.8%
viability, T/C [27]: 68.4%
viability, T/C [11]: 85.8%
viability, T/C [12]: 85.3%
viability, T/C [13]: 85.4%
viability, T/C [14]: 95.2%
viability, T/C [15]: 70.3%
viability, T/C [28]: 51.2%
viability, T/C [16]: 83.7%
viability, T/C [17]: 93.5%
viability, T/C [18]: 84.7%
viability, T/C [19]: 80.6%
viability, T/C [20]: 91.4%
viability, T/C [29]: 69.7%
viability, T/C [21]: 77.6%
viability, T/C [22]: 73.5%
viability, T/C [23]: 85.3%
viability, T/C [24]: 77.8%
viability, T/C [25]: 71%
viability, T/C [30]: 51%
